The test deals with T1, P62 (P62/SQSTM1) (Homo sapiens, UniProt Q13501).
T1 construct: MBP-P62 (purified recombinant)
In words: microscale thermophoresis (MST) with labelled MBP-P62, MBP as negative control; also induces polymerization of purified P62. It is filed as binding. (In general: MST reads how a fluorescent partner responds to local heating, with and without ligand.)

One may read the Kd as a measure of binding affinity in units of concentration. A low value points to tighter binding.

T1 sequence (Q13501 2-440): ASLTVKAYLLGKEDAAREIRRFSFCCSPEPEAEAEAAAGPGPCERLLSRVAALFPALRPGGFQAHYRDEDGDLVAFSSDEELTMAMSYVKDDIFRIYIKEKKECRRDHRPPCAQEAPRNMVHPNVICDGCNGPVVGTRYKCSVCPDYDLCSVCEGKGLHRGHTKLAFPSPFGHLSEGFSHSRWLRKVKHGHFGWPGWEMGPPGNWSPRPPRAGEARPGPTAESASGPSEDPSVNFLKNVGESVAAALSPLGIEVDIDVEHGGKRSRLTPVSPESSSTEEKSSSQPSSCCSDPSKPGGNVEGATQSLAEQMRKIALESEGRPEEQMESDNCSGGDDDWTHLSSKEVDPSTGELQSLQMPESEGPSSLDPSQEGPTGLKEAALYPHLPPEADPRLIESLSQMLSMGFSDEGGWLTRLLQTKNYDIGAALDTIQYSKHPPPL

`O=C(c1ccc(OCCN2CCCCC2)cc1)c1c(O)nc2ccc(O)c3c2c1-c1cccc(O)c1C3=O` [HDYL-GQQ-495] showed a Kd of 11.2 ± 4.07 µM.

(Values after paper PMC9965018, “Marine-Derived Natural Product HDYL-GQQ-495 Targets P62 to Inhibit Autophagy” (Marine Drugs, 2023).)
